Patent publication EP0558673B1, “RETROVIRAL PROTEASE INHIBITORS” (MONSANTO COMPANY, priority 1990, dated 1992)

Tests used:
HIV-1 = experiment: CEM cell assay: HIV inhibition assay of acutely infected cells (tetrazolium/MTT colorimetric); type: cell-based; settings: Human immunodeficiency virus 1, CCRF-CEM, 168 h; Table 17; CEM cells acutely infected with HIV-1, 7 days, MTT readout; read-out: EC₅₀
Procedure: The effectiveness of the compounds listed in Table 16 were determined in the above-described enzyme assay and in a CEM cell assay.
Methods 20, 309-321 (1988).

HIV protease = target: T1, HIV protease (Human immunodeficiency virus type 1 group M subtype B, UniProt P04585); experiment: HIV protease enzyme assay (fluorescence, substrate 2-aminobenzoyl-Ile-Nle-Phe(p-NO₂)-Gln-ArgNH₂); type: biochemical; settings: Table 16; enzyme 12.3 nanomolar, substrate 80 µM, pH 6.4, ambient temperature; read-out: IC₅₀
T1 construct: final enzyme concentration of 12.3 nanomolar, based on a molecular weight of 10,780
Text: The compounds of the present invention are effective HIV protease inhibitors. Utilizing an enzyme assay as described below, the compounds set forth in the examples herein disclosed inhibited the HIV enzyme. The preferred compounds of the present invention and their calculated IC₅₀ (inhibiting concentration 50%, i.e., the concentration at which the inhibitor compound reduces enzyme activity by 50%) values are shown in Table 16. The enzyme method is described below. The substrate is 2-aminobenzoyl-Ile-Nle-Phe(p-NO₂)-Gln-ArgNH₂. The positive control is MVT-101 (Miller, M. et al, Science, 246, 1149 (1989)] The assay conditions are as follows: Assay buffer: 20 mM sodium phosphate, pH 6.4 20% glycerol 1 mM EDTA 1 mM DTT 0.1% CHAPS
The above described substrate is dissolved in DMSO, then diluted 10 fold in assay buffer. Final substrate concentration in the assay is 80 µM.
HIV protease is diluted in the assay buffer to a final enzyme concentration of 12.3 nanomolar, based on a molecular weight of 10,780.
The final concentration of DMSO is 14% and the final concentration of glycerol is 18%. The test compound is dissolved in DMSO and diluted in DMSO to 10x the test concentration; 10µl of the enzyme preparation is added, the materials mixed and then the mixture is incubated at ambient temperature for 15 minutes. The enzyme reaction is initiated by the addition of 40µl of substrate. The increase in fluorescence is monitored at 4 time points (0, 8, 16 and 24 minutes) at ambient temperature. Each assay is carried out in duplicate wells.

| SMILES | EC50 (HIV-1) [nM] | IC50 (HIV protease) [nM] |
| --- | --- | --- |
| CC(C)CCN(C[C@@H](O)[C@H](Cc1ccccc1)NC(=O)[C@@H](NS(=O)(=O)CCc1ccccc1)C(C)(C)C)C(=O)NC(C)(C)C (relative stereo) [Compound 1, 3-Thia-4,7,11-triazadodecan-12-amide, N,5-bis(1,1-dimethylethyl)-9-hydroxy-11-(3-methylbutyl)-6-oxo-8-(phenylmethyl)-1-phenyl-, 2,2-dioxide-,5S-,(5R*,8R*,9S*)]] | 510 | 22 |
| CC(C)CCN(C[C@@H](O)[C@H](Cc1ccccc1)NC(=O)[C@@H](NS(=O)(=O)CCc1ccccc1)C(C)C)C(=O)NC(C)(C)C (relative stereo) [Compound 2, 3-Thia-4,7,11-triazadodecan-12-amide, N-(1,1-dimethylethyl)-5-(1-methylethyl)-9-hydroxy-11-(3-methylbutyl)-6-oxo-8-(phenylmethyl)-1-phenyl-, 2,2-dioxide-,[5S-,(5R*,8R*,9S*)]] | 440 | 29 |
| CC(C)CCN(C[C@@H](O)[C@H](Cc1ccccc1)NC(=O)[C@H](CC(N)=O)NS(=O)(=O)CCc1ccccc1)C(=O)NC(C)(C)C (relative stereo) [Compound 3, 3-Thia-4,7,11-triazadodecan-12-amide, N-(1,1-dimethylethyl)-5-(2-amino-2-oxo-ethyl)-9-hydroxy-11-(3-methylbutyl)-6-oxo-8-(phenylmethyl)-1-phenyl-, 2,2-dioxide-,[5S-,(5R*,8R*,9S*)]] |  | 24 |
